# Data: patent US20190167676A1, “METHODS FOR IMPROVING RESISTANCE TO SKELETAL MUSCLE FATIGUE” (Cytokinetics, Inc., priority 2012, published 2019)
# Tests used:
# [1] = system: patients with peripheral artery disease and claudication; experiment: Safety and tolerability, Phase II study; type: in vivo, human
# Procedure: (§1) This study was a double-blind, randomized, placebo-controlled, three-period cross-over, hypothesis generating Phase II study in patients with peripheral artery disease and claudication. […] Secondary objectives included (a) evaluation and characterization of the relationship, if any, between the doses and plasma concentrations of Compound A and its pharmacodynamic effects, and (b) evaluation of the safety and tolerability of Compound A administered as single doses.
# Single doses of each of 375 mg Compound A, 750 mg Compound A and placebo were administered in random order with a 6 to 10 day wash out between each dose. […] Assessments include 1) Bilateral Heel Raise Test (as described below) using electrogoniometry at 3 and 6 hours after dosing, and 2) 6-Minute Walk Test at 4 hours after dosing. Results were analyzed using a repeated-measures ANCOVA with treatment, sequence, period, baseline, and patient in the model. In the event of model assumption violations, non-parametric methods were utilized
# [2] = system: skinned human vastus lateralis fast fibers; settings: skinned fast fibers from muscle biopsies; cited from earlier work
# [3] = biological target: fast skeletal troponin (Homo sapiens, UniProt P02585); settings: isothermal titration calorimetry; cited from earlier work
# [4] = system: rat EDL muscle; experiment: Fatigue in rat EDL muscle in situ; type: in vivo
# Text: Rats were placed under anesthesia using isoflurane and the skin around the experimental leg was removed. The distal end of the EDL muscle and its associated tendon were then isolated. The rat was then placed on the platform of an Aurora in-situ muscle analysis rig (806C), maintained at body temperature via a circulating water system. The knee was immobilized in a clamp between two sharpened screws and the distal tendon cut and tied to the arm of a force transducer (Aurora Scientific, Ontario, Canada) using a silk suture. The muscle was stimulated directly via the peroneal nerve. For isolation of the nerve, a 1 cm incision was made at the upper thigh and the overlying gastrocnemius muscle was cut to expose an approximate 5 mm stretch of the peroneal nerve. […] Muscle contractile properties were assessed by applying an electrical current to the nerve and recording the force generated by the muscle via a servomotor. […]
# With the rat in situ EDL muscle preparation described in Example 3, a fatiguing protocol was utilized where muscle was stimulated for 600 seconds. […] To elicit muscle fatigue, the EDL muscle was stimulated with 350 msec electrical trains every 3 seconds for ten minutes at a frequency producing an initial force equal to 50% of maximal (FMax50) as determined by the force-frequency relationship for each animal.
# [5] = system: patients with peripheral artery disease and claudication; experiment: 6-Minute Walk Test, Phase II study; type: in vivo, human; settings: single doses 375, 500, 750 mg; 4 hours after dosing
# Text: as §1
# Assessments include 1) Bilateral Heel Raise Test (as described below) using electrogoniometry at 3 and 6 hours after dosing, and 2) 6-Minute Walk Test at 4 hours after dosing. Results were analyzed using a repeated-measures ANCOVA with treatment, sequence, period, baseline, and patient in the model. In the event of model assumption violations, non-parametric methods were utilized
# [6] = system: healthy rats; experiment: Fatigue-rotarod running time test; type: in vivo, rat; settings: between 0.3 mg/kg and 100 mg/kg, FIG. 16
# Procedure: The effect of the fast skeletal muscle troponin activator 1-(2-(((trans)-3-fluoro-1-(3-fluoropyridin-2-yl)cyclobutyl)methylamino)pyrimidin-5-yl)-1H-pyrrole-3-carboxamide (Compound C) on muscle fatigue in healthy rats was determined by a rotarod running time test. Compound C was administered to test rats at the doses between 0.3 mg/kg and 100 mg/kg (˜70 nM-28 μM). On the day of the assessment, the animals began by running at an increasing speed from 14-16 RPM over 5 minutes. Rats were then run at a constantly accelerating rate from 12 RPM to 25 RPM over the course of 10 minutes. Time to fall was recorded, with the test being terminated at 600 seconds. The plasma levels were determined at the end of the experiments (not at Cmax). The plasma levels for the indicated doses were determined to be the following: […]
# [7] = Plasma concentrations, Phase II study; type: in vivo, human
# [8] = system: healthy female rats; experiment: Cage grid hang time; type: in vivo, rat
# Procedure: Static fatigue in conscious rats was assessed by measuring the length of time that healthy female rats would hang upside down from a cage grid. Rats were trained to hang upside-down from a cage grid and the time to drop to soft padding below was recorded. Baseline hang-times were recorded for each animal (n=24) for a two week period of time. The rats were then treated with Compound A (200 ppm) in chow for two weeks while hang times were monitored daily. Finally, the rats were withdrawn from Compound A in their chow for five days while hang times were recorded daily.
# [9] = biological target: T1, myofibrils from cardiac muscle (Homo sapiens, UniProt P63316); settings: cited from earlier work
# T1 construct: from tissue; host or cells: cardiac muscle myofibrils
# [10] = 200 ppm in chow, average final three days of two week dosing
# [11] = after withdrawal, average final three days of five day period
# Chain of fast skeletal troponin (P02585 whole entry): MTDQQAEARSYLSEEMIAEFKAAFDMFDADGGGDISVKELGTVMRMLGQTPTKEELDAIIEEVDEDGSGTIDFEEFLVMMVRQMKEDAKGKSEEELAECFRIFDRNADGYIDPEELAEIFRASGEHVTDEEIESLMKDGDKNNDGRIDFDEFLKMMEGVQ
# Chain of fast skeletal troponin (P48788 whole entry partner): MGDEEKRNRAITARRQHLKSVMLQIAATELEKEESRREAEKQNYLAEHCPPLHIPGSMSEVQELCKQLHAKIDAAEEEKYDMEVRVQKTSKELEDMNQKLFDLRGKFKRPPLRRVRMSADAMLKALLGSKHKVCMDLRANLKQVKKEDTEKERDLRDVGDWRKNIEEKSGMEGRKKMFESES
# Chain of fast skeletal troponin (P45378 whole entry partner): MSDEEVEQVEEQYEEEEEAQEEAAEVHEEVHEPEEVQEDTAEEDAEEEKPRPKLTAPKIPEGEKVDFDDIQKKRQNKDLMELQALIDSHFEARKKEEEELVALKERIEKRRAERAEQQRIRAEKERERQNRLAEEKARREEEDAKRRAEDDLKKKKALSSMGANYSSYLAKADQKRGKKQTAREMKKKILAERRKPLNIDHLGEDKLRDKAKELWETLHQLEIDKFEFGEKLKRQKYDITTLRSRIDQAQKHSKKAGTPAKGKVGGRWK
compound,measurement,setting,value
"C#Cc1cnc2nc(O)n(C(CC)CC)c2n1 [Compound A, 6-ethynyl-1-(pentan-3-yl)-1H-imidazo[4,5-b]pyrazin-2-ol]",adverse events,[1]; 750 mg single dose,adverse events in two patients
same,adverse events vs dose,[1]; single doses 375-750 mg,"Dose related adverse events, particularly dizziness and others related to walking"
same,force-calcium relationship,[2],dramatically left-shifts
same,Kd,[3],0.04 µM
same,average stimulation frequency for force production similar to pre-dose,"[4]; 1 mg/kg via duodenal cannula, vehicle 30 Hz",approximately 26 Hz
same,EDL muscle fatigue,"[4]; 1 mg/kg, 600 seconds protocol, FIG. 4",decreased rat EDL muscle fatigue in situ
same,distance traversed during 6-Minute Walk Test,[5],dose and concentration dependent decrease
same,running time vs vehicle controls,[6],significant increases
same,mean plasma concentrations vs dose,"[7]; 375, 500, 750 mg single doses",relatively dose proportional increases
same,mean plasma concentrations over 24-hour observation period,[7]; even at the 375 mg dose,remained within the pharmacologically active range
same,grid hang time,[8]; [10],899 ± 157 s
same,grid hang time compared to baseline,[8]; [10],160±18%
same,grid hang time,[8]; [11],698 ± 122 s
same,"grid hang time, normalized performance",[8]; [11],124±12%
same,effect in myofibrils,[9],little or no effect
